Measurements taken from patent publication US10973777B2, “Methods for treatment of interstitial cystitis” (Panag Pharma Inc., priority 2017, dated 2021).
“Also recorded” adds a separate entry of the source.

Experiments:
[1] = system: NGF-induced bladder hyper-reflexia; conditions: rats; systemic administration; cited from earlier work
[2] = system: LPS-induced cystitis; experiment: Electronic von Frey aesthesiometry, Example 5; format: in vivo, female BALB/c mice; conditions: oral BCP 100 mg/kg 60 minutes prior to LPS; T0 vs T1; FIG. 26
Description: (§1) Studies were carried out to investigate the anesthetic effect of oral administration of Beta-C. Animals and local bladder inflammation model were as described hereinabove in Example 2. The groups were as follows:
(§2) In the oral gavage groups, the mice were treated with 100 mg/kg beta-C by gavage. In the LPS group administered oral beta-C, the administration was 60 minutes prior to LPS exposure. LPS (local) was provided as detailed hereinabove in Example 2.
This was a quantified pain assessment that measures the amount of force applied in grams, before an animal reacts (e.g. withdraws) to the noxious stimulus. This quantification allows for accurate detection of pain relief effectiveness of a treatment. Healthy animals were scored before any treatments or cystitis induction to set an individual baseline for each specimen. The animals were also scored after the cystitis was induced and the treatment effect could be measured. Each individual animal was compared to itself before the induction, as well as a summarized group comparison was performed.

[3] = system: LPS-induced cystitis; experiment: Systemic (endotoxemia-induced) bladder inflammation model, intravital microscopy of the bladder; conditions: LPS 10 mg/kg i.p.
[4] = system: inflammatory and neuropathic pain; conditions: mouse models of inflammatory and neuropathic pain; cited from earlier work
[5] = system: LPS-induced cystitis; experiment: Pain assessment scoring (behavioural), Example 5; format: in vivo, female BALB/c mice
Description: as §1, §2
Healthy animals were scored behaviourally to set an individual baseline for each specimen. Animals were then anesthetized with isoflurane and given LPS instillation to induce cystitis-like conditions in bladder. After the induction, animals were then woken up and allowed to normally explore/feed themselves in their cage under observation. Changes in behaviour and appearance (i.e. breathing rate, posture, motor activity, eye opening) were then scored again. Each behavioural parameter received a possible maximum score of 10, totaling to a possible maximum of 40. The minimum score possible is a 0, which implies that the parameter is unaffected as a pre-existing condition. Breathing Rate—each decrease in cycle warrants an increase in score. Opening of the eyes—0 complete opening, 5 half opening, 10 fully closed, and 2 and 7 are intermediate positions. Posture—no change is 0, full rounded back OR limp is 10. Intermediate postures gain intermediate scores. Motor activity—activity (exploring, moving, grooming) within 20 seconds. e.g. no movement for 10 seconds (=50%)=5 points; no movement for 2 seconds (=10%)=1 point. The scoring system is based on that reported by Eschalier et al.^37 but has the additional parameter of motor activity.

[6] = compared with procaine; cited from earlier work
[7] = system: LPS-induced cystitis; experiment: Local bladder inflammation model, Example 2 (instillation), intravital microscopy of the bladder; format: in vivo, female BALB/c mice; conditions: LPS 150 μg/ml instilled 30 min, then instillation, BCP 100 mg/kg; for leukocyte rolling in bladder venules: FIG. 10; for leukocyte adhesion in bladder venules: FIGS. 9 and 12; for capillary perfusion quantified through functional capillary density (FCD): FIGS. 11 and 13
[8] = system: LPS-induced cystitis; experiment: Local bladder inflammation model, Example 4 (oral Beta-C alone or with MSM), intravital microscopy; format: in vivo, female BALB/c mice; conditions: for leukocyte adhesion in bladder venules: FIGS. 14, 16; for capillary perfusion quantified through functional capillary density (FCD): FIGS. 15, 17
Description: Laparotomy was then performed to gain access to the bladder and to have a visual confirmation of bladder instillation success. […] This was then followed by an insertion of a P10 catheter into the urethra. […] LPS solution (150 μg/ml) was slowly instilled and held in the bladder for 30 minutes. The animal was then rotated on the heating pad at a halfway point to ensure that all sides of bladder were equally exposed to LPS.
Animals and local bladder inflammation model were as described hereinabove in Example 2. The groups were as follows:
In the oral gavage groups, the mice were treated with 100 mg/kg beta-C or 100 mg/kg beta-C in 100 mg/kg methylsulfonylmethane (MSM) by gavage. In groups other than the Healthy Animal Control administered oral beta-C, the administration was 60 minutes prior to LPS exposure. LPS (local) was provided as detailed hereinabove in Example 2. Intravesical MSM was provided similar to as detailed hereinabove in Example 1 for DMSO. Leukocyte adherence, leukocyte rolling and functional capillary density were measured using the techniques as described hereinabove in Example 2. Results were assessed using the statistical methods described hereinabove in Example 2.

[9] = system: LPS-induced cystitis; experiment: Local (endotoxin-induced) bladder inflammation model, Example 1, intravital microscopy of the bladder; conditions: LPS 100 μg/ml instilled 30 min, then drug instillation (DMSO 40%)
[10] = system: severe IC; conditions: patients with severe IC; intravesical DMSO; cited from earlier work
[11] = system: interstitial cystitis; conditions: patients with IC; oral therapy; cited from earlier work
[12] = system: interstitial cystitis; conditions: clinical case studies for IC; cited from earlier work
[13] = healthy animals (no LPS) administered oral Beta-C 100 mg/kg

In the case of `CCCCCCCCCCCCCCCC(=O)NCCO` [PEA, N-palmitoylethanolamide], the “NGF-induced bladder hyper-reflexia and reduction of micturition threshold” value [1] is listed as “attenuated”.

For `C=C1CC/C=C(\C)CC[C@@H]2[C@@H]1CC2(C)C` [Beta-C, beta-caryophyllene], the “amount of force applied via electronic von Frey aesthesiometer before a response (withdrawal threshold)” value [2] was “significant improvement in withdrawal threshold”, the “leukocyte adhesion in bladder venules” value ([3]; 100 mg/kg Beta-C injected 15 min after LPS, IVM two hours after treatment, vs LPS, FIG. 1) was “significantly decreased the number of adhering leukocytes” and the “capillary perfusion quantified through functional capillary density (FCD)” value ([3]; 100 mg/kg Beta-C injected, FIG. 3) was “restored perfusion to levels observed in healthy control animals”. The “leukocyte rolling in bladder venules” value ([3]; 100 mg/kg Beta-C injected, vs endotoxemia group, FIG. 2) was “did not significantly alter the number of rolling leukocytes”, the “analgesic and anti-inflammatory effects” value [4] was “analgesic and anti-inflammatory effects” and the “behavioural results for eye opening” value ([5]; oral BCP 100 mg/kg 60 minutes prior to LPS, vs untreated LPS, FIG. 22) was “significant improvement”. For the same molecule, the “behavioural results for motor activity” value ([5]; oral BCP 100 mg/kg 60 minutes prior to LPS, vs untreated LPS, FIG. 23) was “Significant improvements”, the “behavioural results for posture” value ([5]; oral BCP 100 mg/kg 60 minutes prior to LPS, vs untreated LPS, FIG. 24) was “Significant improvements” and the “total composite score of behavioural results (behavioural pain score)” value ([5]; oral BCP 100 mg/kg 60 minutes prior to LPS, vs untreated LPS, FIG. 25) was “significant reduction in behavioural pain score”. The “behavioural results for breathing rate” value ([5]; oral Beta-C 100 mg/kg 60 minutes prior to LPS, T1 vs untreated LPS, FIG. 21) was “significant reduction in breathing rate”, the local anesthetic actions [6] was “dose-dependent local anesthetic actions comparable to procaine” and the “leukocyte rolling in bladder venules” value [7] was “restored the level of leukocyte levels to that of control animals”. The “leukocyte adhesion in bladder venules” value [7] was “significantly decreased the number of adhering leukocytes back to the level of healthy control animals”, the “leukocyte adhesion in bladder venules” value ([7]; listed as BCP) was “decrease in leukocyte adherence comparable to groups instilled with various levels of DMSO” and the “capillary perfusion quantified through functional capillary density (FCD)” value [7] was “highest overall values for FCD”. For the same molecule, the “capillary perfusion quantified through functional capillary density (FCD)” value ([7]; listed as BCP) was “restored perfusion to levels observed in healthy control animals; also recorded: significant improvement in FCD”, the “leukocyte adhesion in bladder venules” value ([8]; LPS-induced cystitis, oral gavage 100 mg/kg Beta-C (with or without 100 mg/kg MSM) 60 minutes prior to LPS) was “significant decrease in the number of adherent leukocytes” and the “capillary perfusion quantified through functional capillary density (FCD)” value ([8]; LPS-induced cystitis, oral gavage 100 mg/kg Beta-C (with or without 100 mg/kg MSM) 60 minutes prior to LPS, listed as BCP) was “no significant differences were observed in the treatment group; also recorded: did not significantly improve FCD”. The “leukocyte adhesion in bladder venules” value [8, 13] was “did not produce any significant changes in leukocyte adherence”, the “capillary perfusion quantified through functional capillary density (FCD)” value [8, 13] was “significant improvement in functional capillary density” and the “capillary perfusion quantified through functional capillary density (FCD)” value ([8]; healthy animals (no LPS) administered oral Beta-C 100 mg/kg, listed as BCP) was “significant improvement in FCD”.

For `C[S+](C)[O-]` [DMSO, Dimethyl sulfoxide], the “leukocyte adhesion in bladder venules” value ([9]; FIG. 6) was “did not significantly decrease leukocyte adherence”, the “leukocyte rolling in bladder venules” value ([9]; FIG. 7) was “did not show any significant difference when compared to the endotoxemia group” and the “capillary perfusion quantified through functional capillary density (FCD)” value ([9]; FIG. 8) was “did improve perfusion, it did not return perfusion to the levels observed in healthy control animals”. For the same molecule, the treatment failure rate [10] was “high failure rate”, the “leukocyte rolling in bladder venules” value [7] was “did not improve leukocyte rolling” and the “leukocyte adhesion in bladder venules” value [7] was “retained a high level of activated leukocytes”. The “capillary perfusion quantified through functional capillary density (FCD)” value [7] was “did improve perfusion, it did not return perfusion to the levels observed in healthy control animals”.

In the case of pentosan polysulfate [PPS], the “effect of PPS treatment (proportion of patients)” value [11] is given as “limited to only a quarter of patients”.

For `CS(C)(=O)=O` [Methylsulfonylmethane], the “effective treatment, number of patients suffering from IC” value [12] is given as 4 out of 6.

In the case of `CCCCC/C=C\C/C=C\C/C=C\C/C=C\CCCC(=O)NCCO` [AEA, N-arachidonoylethanolamine], the “NGF-induced bladder hyper-reflexia and reduction of micturition threshold” value [1] is given as “attenuated”.
